For 43 compounds, IC50 results are on record in patent publication US10703764B2, “Benzopiperazine compositions as BET bromodomain inhibitors” (FORMA Therapeutics, Inc., priority 2013, dated 2020).

Some results are limits rather than exact numbers.

The target of experiment [1] is T1, BRD4 BD1 (Homo sapiens, UniProt O60885).
T1 construct: made in house
The experiment can be described thus: AlphaScreen binding assay, BRD4 Bromodomain 1. The protocol:
(§1) The binding of Example compounds to BRD4 Bromodomain 1 and BRD4 Bromodomain 2 was assessed using 384-well AlphaScreen assay technology. His-epitope tagged BRD4 BD144-168 and BRD4 BD2333-460 were cloned, expressed, and purified to homogeneity. BRD4 BD1 and BRD4 BD2 binding and inhibition was assessed by monitoring the engagement of biotinylated Histone H4 (1-21) K5/8/12/16 tetra-acetylated peptide with the targets using the AlphaScreen technology (PerkinElmer). Specifically, in a 384-well black or white flat bottom plate, BRD4 BD1 (50 nM final) or BRD4 BD2 (100 nM final) was combined with peptide (50 nM final for BD1 or 100 nM final for BD2) in 50 mM HEPES (pH 7.3), 100 mM NaCl, 0.1% (w/v) BSA, and 0.01% (w/v) Triton X-100 either in the presence of DMSO (final 1.25% DMSO) or compound dilution series in DMSO. Alpha streptavidin donor beads and Nickel-chelate acceptor beads were added to a final concentration of 10 μg/ml each. After a minimum of 1 hour equilibration, plates were read on a BMG PHERAstar FS multi-label reader (BMG LabTech). The half maximal inhibitory concentration (IC50) values were calculated using IDBS Activity Base software with a four parameter logistic curve fit by the equation y=A+((B−A)/(1+((C/x)^D))), wherein A denotes the bottom plateau of the curve, B denotes the top plateau of the curve, C denotes the x value at the middle of the curve, D denotes the slope factor, x denotes the original known x values, and y denotes the original known y values. Data was fitted using the Levenburg Marquardt algorithm.
For orientation: Alpha assays give light when donor and acceptor beads are brought close together.

Experiment [2] addresses T2, BRD4 BD2 (Homo sapiens, UniProt O60885).
T2 construct: made in house
The experiment can be described thus: AlphaScreen binding assay, BRD4 Bromodomain 2. As for the experimental part:
as §1

`CC(=O)N1c2ccc(-c3ccc(S(C)(=O)=O)cc3)cc2N(C(=O)c2ccc(-c3ccccc3)o2)C[C@@H]1C` [Example I-886]: the half-maximal inhibitory concentration (IC50) (in general, the concentration needed to halve the response being measured) in experiment [1] was more than 10000 nM; in experiment [2], 50 to 500 nM.
The matching figures for `CC(=O)N1c2ccc(-c3cnn(C4CC4)c3)cc2N(C(=O)Oc2ccc(Cl)cc2Cl)C[C@@H]1C` [Example I-1193]: 1000 to 10000 nM and 50 to 500 nM.
Consider `CC(=O)N1c2ccc(-c3ccc(S(=O)(=O)CC(=O)N(C)C)cc3)cc2N(C(=O)c2ccco2)C[C@@H]1C` [Example I-433], for which the values for the IC50 in experiment [1] and in experiment [2] were 100 to 1000 nM and 50 to 500 nM, respectively.
Regarding `COC(=O)N1c2ccc(-c3cnn(C[C@@H]4CCNC4)c3)cc2N(C(=O)OC(C)C)C[C@@H]1C` [Example I-691], the IC50 in experiment [1] lay in the range of 1000 to 10000 nM; in experiment [2] it was 50 to 500 nM.
`CC(=O)N1c2ccc(-c3ccc(S(C)(=O)=O)cc3)cc2N(C(=O)c2cc3cc(OC(F)(F)F)ccc3[nH]2)CC1C` (centres unmarked) [Example I-788]: the IC50 in experiment [1] was more than 10000 nM; in experiment [2], more than 500 nM.
On to `CC(=O)N1c2ccccc2N(C(=O)COc2ccccc2)C[C@@H]1C` [Example I-712], for which the IC50 is more than 10000 nM in experiment [1] and more than 500 nM in experiment [2].
As for `CC(=O)N1c2ccccc2N(C(=O)c2ccc(C(C)C)cn2)C[C@@H]1C` [Example I-728], the IC50 was more than 10000 nM in experiment [1] and more than 500 nM in experiment [2].
Take `CC(=O)N1c2ccc(-c3cnn(C4CC4)c3)cc2N(C(=O)Oc2cncc(C)c2)C[C@@H]1C` [Example I-520]: the IC50 in experiment [1] was in the range of 1000 to 10000 nM; in experiment [2] it was 50 to 500 nM.
Take `CC(=O)N1c2ccc(-c3ccc(S(C)(=O)=O)cc3)cc2N(C(=O)c2ccc(C(F)(F)F)o2)C[C@@H]1C` [Example I-887]: the IC50 in experiment [1] is more than 10000 nM; in experiment [2], 50 to 500 nM.
For the compound `CC(=O)N1c2ccccc2N(S(=O)(=O)c2cn(C)cn2)C[C@@H]1C` [Example I-961], the IC50 in experiment [1] was more than 10000 nM; in experiment [2], more than 500 nM.
Take `CCNC(=O)N1C[C@H](C)N(C(C)=O)c2ccc(-c3ccc(S(C)(=O)=O)cc3)cc21` [Example I-965]: the values for the 50% inhibitory concentration (IC50) in experiment [1] and in experiment [2] were more than 10000 nM and more than 500 nM, respectively.
Regarding `CC(=O)N1c2ccc(-c3ccc(S(C)(=O)=O)cc3)cc2N(C(=O)Oc2ccc(Cl)cc2)C[C@@H]1C` [Example I-226], the half-maximal inhibitory concentration (IC50) in experiment [1] lay in the range of 1000 to 10000 nM; in experiment [2], 50 to 500 nM.
As for `CC(=O)N1c2ccc(-c3ccc4nnc(C)n4c3)cc2N(C(=O)c2ccco2)C[C@@H]1C` [Example I-393], the IC50 in experiment [1] fell in the range of 1000 to 10000 nM; in experiment [2] it was 50 to 500 nM.
For the compound `CC(=O)N1c2ccc(-c3ccc(S(C)(=O)=O)cc3)cc2N(C(=O)c2ccco2)CC1CF` (centres unmarked) [Example I-7, 1-(2-(fluoromethyl)-4-(furan-2-carbonyl)-6-(4-(methylsulfonyl)phenyl)-3,4-dihydroquinoxalin-1(2H)-yl)ethan-1-one], the values for the IC50 in experiment [1] and in experiment [2] were more than 10000 nM and more than 500 nM, respectively.
As for `CC(=O)N1c2ccc(-c3ccc(S(C)(=O)=O)cc3)cc2N(C=O)C[C@@H]1C` [Example I-102, (S)-4-acetyl-3-methyl-7-(4-(methylsulfonyl)phenyl)-3,4-dihydroquinoxaline-1(2H)-carbaldehyde], the IC50 was more than 10000 nM in experiment [1] and more than 500 nM in experiment [2].
The matching figures for `COC(=O)N1c2ccc(-c3cnn(CC(C)(C)O)c3)cc2N(C(=O)Oc2ccccn2)C[C@@H]1C` [Example I-1321]: 1000 to 10000 nM and 50 to 500 nM.
Turning to `CC(=O)N1c2ccccc2N(C(=O)Cc2ccc(-c3ccccc3)cc2)C[C@@H]1C` [Example I-707], the half-maximal inhibitory concentration (IC50) was more than 10000 nM in experiment [1] and more than 500 nM in experiment [2].
Regarding `CC(=O)N1c2ccccc2N(Cc2ccc(Oc3ccccc3)cc2)C[C@@H]1C` [Example I-919], the IC50 in experiment [1] was more than 10000 nM; in experiment [2] it was more than 500 nM.
Taken in the same sequence, the figures for `CC(=O)N1c2ccccc2N(C(=O)c2cnn3c2OCCC3)C[C@@H]1C` [Example I-773] were more than 10000 nM and more than 500 nM.
Consider `CC(=O)N1c2ccccc2N(C(=O)COc2ccc(F)cc2)C[C@@H]1C` [Example I-735], for which the IC50 was more than 10000 nM in experiment [1] and more than 500 nM in experiment [2].
Take `CC(=O)N1c2ccc(-c3ccc(S(C)(=O)=O)cc3)cc2N(C(=O)c2cc3ccc(Cl)cc3[nH]2)CC1C` (centres unmarked) [Example I-787]: the values for the IC50 in experiment [1] and in experiment [2] were 1000 to 10000 nM and 50 to 500 nM, respectively.
In the case of `CC(=O)N1c2ccccc2N(C(=O)c2ccc3ccccc3c2)C[C@@H]1C` [Example I-716], the results for the IC50 in experiment [1] and in experiment [2] were more than 10000 nM and more than 500 nM, respectively.
Take `CC(=O)N1c2ccc(-c3ccc4[nH]ccc4c3)cc2N(C(=O)c2ccco2)CC1C` (centres unmarked) [Example I-385]: the IC50 was 1000 to 10000 nM in experiment [1] and more than 500 nM in experiment [2].
As to `CC(=O)N1c2ccccc2N(S(=O)(=O)c2cccc(C(F)(F)F)c2)C[C@@H]1C` [Example I-947], the figures for the IC50 in experiment [1] and in experiment [2] were more than 10000 nM and more than 500 nM, respectively.
As for `COC(=O)N1c2ccc(-c3ccc(S(=O)(=O)CCN)cc3)cc2N(C(=O)C2CC2)C[C@@H]1C` [Example I-461], the figures for the IC50 in experiment [1] and in experiment [2] were 1000 to 10000 nM and 50 to 500 nM, respectively.
Taken in the same sequence, the figures for `CC(=O)N1c2ccc(-c3cnn(CCC(F)(F)F)c3)cc2N(C(=O)OC(C)C)C[C@@H]1C` [Example I-142, (S)-isopropyl 4-acetyl-3-methyl-7-(1-(3,3,3-trifluoropropyl)-1H-pyrazol-4-yl)-3,4-dihydroquinoxaline-1(2H)-carboxylate] were 1000 to 10000 nM and 50 to 500 nM.
`CC(=O)N1c2ccccc2N(C(=O)c2csc(C(F)(F)F)n2)C[C@@H]1C` [Example I-761]: the IC50 in experiment [1] is more than 10000 nM; in experiment [2] it was more than 500 nM.
In the case of `CC(=O)N1c2ccccc2N(S(=O)(=O)c2ccccc2)C[C@@H]1C` [Example I-932], the 50% inhibitory concentration (IC50) in experiment [1] is more than 10000 nM; in experiment [2], more than 500 nM.
As for `CC(=O)N1c2ccccc2N(C(=O)COc2ccc3ccccc3c2)C[C@@H]1C` [Example I-734], the concentration for half-maximal inhibition (IC50) in experiment [1] is more than 10000 nM; in experiment [2] it was more than 500 nM.
With `C[C@H]1CN(C(=O)c2ccco2)c2cc(-c3ccc(S(C)(=O)=O)cc3)ccc2N1C(=O)C1CCCC1` [Example I-373], the concentration for half-maximal inhibition (IC50) in experiment [1] is more than 10000 nM; in experiment [2], more than 500 nM.
Consider `CC(=O)N1c2ccc(-c3ccc(S(C)(=O)=O)cc3)cc2N(C(=O)Nc2cccc(Cl)c2)C[C@@H]1C` [Example I-969], for which the 50% inhibitory concentration (IC50) is more than 10000 nM in experiment [1] and more than 500 nM in experiment [2].
On to `CC(=O)N1c2ccc(-c3ccc(S(C)(=O)=O)cc3)cc2N(C(=O)C(C)C)C[C@@H]1C` [Example I-242], for which the IC50 in experiment [1] was more than 10000 nM; in experiment [2], more than 500 nM.
On to `C[C@H]1CN(C(=O)C2CC2)c2cc(-c3ccc(N4CCCS4(=O)=O)cc3)ccc2N1C(=O)C1CC1` [Example I-440], for which the IC50 fell in the range of 100 to 1000 nM in experiment [1] and 50 to 500 nM in experiment [2].
Regarding `CC(=O)N1c2cnc(-c3ccc(S(C)(=O)=O)cc3)cc2N(C(=O)OC(C)C)C[C@@H]1C` [Example I-58, isopropyl (S)-4-acetyl-3-methyl-7-(4-(methylsulfonyl)phenyl)-3,4-dihydro pyrido[3,4-b]pyrazine-1 (2H)-carboxylate], the IC50 in experiment [1] was 1000 to 10000 nM; in experiment [2], more than 500 nM.
For `CC(=O)N1c2ccc(-c3ccc(S(C)(=O)=O)cc3)cc2N(C(=O)N2CCCC2)C[C@@H]1C` [Example I-100, (S)-1-(2-methyl-6-(4-(methylsulfonyl)phenyl)-4-(pyrrolidine-1-carbonyl)-3,4-dihydroquinoxalin-1(2H)-yl)ethanone], the IC50 was more than 10000 nM in experiment [1] and 50 to 500 nM in experiment [2].
On to `CC(=O)N1c2ccccc2N(Cc2cccc(OCCN(C)C)c2)C[C@@H]1C` [Example I-908], for which the figures for the IC50 in experiment [1] and in experiment [2] were more than 10000 nM and 50 to 500 nM, respectively.
For `CC(=O)N1c2ccc(-c3ccc(S(C)(=O)=O)cc3)cc2N(C(=O)C2CCCC2)C[C@@H]1C` [Example I-244], the figures for the IC50 in experiment [1] and in experiment [2] were 1000 to 10000 nM and 50 to 500 nM, respectively.
For `CC(=O)N1c2ccc(-c3ccccc3NS(C)(=O)=O)cc2N(C(=O)c2ccco2)C[C@@H]1C` [Example I-827], the IC50 in experiment [1] is more than 10000 nM; in experiment [2], more than 500 nM.
As to `CC(=O)N1c2ncc(-c3ccc(C(=O)N(C)C)cc3)cc2N(C(=O)c2ccco2)C[C@@H]1C` [Example I-272], the values for the half-inhibitory concentration (IC50) in experiment [1] and in experiment [2] were 1000 to 10000 nM and 50 to 500 nM, respectively.
As for `C[C@H]1CN(C(=O)C2CC2)c2cc(-c3cnc(N)cn3)ccc2N1C(=O)C1CC1` [Example I-442], the IC50 in experiment [1] is 1000 to 10000 nM; in experiment [2], 50 to 500 nM.
As to `CC(=O)N1c2ccc(-c3cnn(CCC(=O)O)c3)cc2N(C(=O)C2CC2)C[C@@H]1C` [Example I-136, (S)-3-(4-(1-acetyl-4-(cyclopropanecarbonyl)-2-methyl-1,2,3,4-tetrahydroquinoxalin-6-yl)-1H-pyrazol-1-yl)propanoic acid], the IC50 in experiment [1] lay in the range of 1000 to 10000 nM; in experiment [2], 50 to 500 nM.
Take `C[C@H]1CN(C(=O)C2CC2)c2cc(-c3cn(C)nn3)ccc2N1C(=O)C1CC1` [Example I-454]: the IC50 is 1000 to 10000 nM in experiment [1] and 50 to 500 nM in experiment [2].
The matching figures for `CC(=O)N1c2ccccc2N(C(=O)c2cc3n(n2)CCC3)C[C@@H]1C` [Example I-774]: more than 10000 nM and more than 500 nM.
